Data reported in the NIST ThermoML archive (doi:10.1021/acs.jced.5b00246).
Where “and” joins values, the source holds several entries; their conditions need not be identical. Identical values can stand only once.

Settings: 101.33 kPa, Liquid, NMR spin-echo technique

C1COCCO1 [1,4-dioxane]
Settings	self diffusion coefficient [m2/s]
288.31 K	9.1e-10
288.33 K	8.97e-10
293.11 K	1.03e-09
298.13 K	1.1e-09
298.17 K	1.12e-09
298.18 K	1.09e-09
298.2 K	1.13e-09
303.12 K	1.24e-09
307.92 K	1.3e-09
308.06 K	1.32e-09
317.85 K	1.55e-09
318.24 K	1.57e-09
327.94 K	1.79e-09
327.95 K	1.81e-09
338.09 K	2.15e-09
338.12 K	2.09e-09
338.13 K	2.11e-09
347.87 K	2.37e-09
347.97 K	2.43e-09
358.25 K	2.66e-09
358.49 K	2.66e-09

CC(C)CCCC(C)CCCC(C)CCCCC(C)CCCC(C)CCCC(C)C (stereo not given) [2,6,10,15,19,23-hexamethyltetracosane]
Settings	self diffusion coefficient [m2/s]
270.4 K	5.32e-12
273 K	6.72e-12
283.3 K	1.34e-11
283.6 K	1.32e-11
288.28 K	1.81e-11
293.13 K	2.19e-11
293.19 K	2.26e-11
298 K	2.79e-11
298.19 K	2.88e-11
298.44 K	2.91e-11
303 K	3.57e-11
303.18 K	3.69e-11
312.99 K	5.7e-11
314.3 K	5.7e-11
322.69 K	8.15e-11
322.72 K	8.24e-11
323.16 K	8.12e-11
325.7 K	8.83e-11
333.03 K	1.17e-10
333.49 K	1.14e-10
334.8 K	1.18e-10
342.81 K	1.5e-10
344.9 K	1.6e-10
348.2 K	1.74e-10
352.82 K	1.96e-10
353.15 K	1.98e-10
362.6 K	2.44e-10
362.82 K	2.5e-10
362.88 K	2.6e-10

CCCCC(CC)COC(=O)c1ccccc1C(=O)OCC(CC)CCCC (stereo not given) [bis(2-ethylhexyl) 1,2-benzenedicarboxylate]
Settings	self diffusion coefficient [m2/s]
268 K	1.31e-12
273 K	2.05e-12
283 K	4.57e-12
298.1 K	1.24e-11
303.18 K	1.71e-11
303.2 K	1.86e-11
312.89 K	2.91e-11
313.2 K	3.05e-11
322.7 K	4.5e-11
322.84 K	4.53e-11
322.88 K	4.53e-11
323.03 K	4.57e-11
323.05 K	4.57e-11
323.1 K	4.73e-11
332.7 K	6.93e-11
333.16 K	6.74e-11
333.2 K	6.78e-11
342.5 K	9.48e-11
343.65 K	9.74e-11
343.7 K	9.79e-11
352.86 K	1.3e-10
352.88 K	1.31e-10
362.72 K	1.69e-10
362.75 K	1.72e-10

C1CCCCC1 [cyclohexane]
Settings	self diffusion coefficient [m2/s]
283.47 K	1.07e-09
283.53 K	1.09e-09
288.31 K	1.19e-09
288.32 K	1.2e-09
298.12 K	1.46e-09
298.15 K	1.47e-09
308.02 K	1.73e-09
308.03 K	1.76e-09
308.16 K	1.71e-09
308.17 K	1.72e-09
317.68 K	2.03e-09
317.73 K	2.08e-09
318.22 K	2.05e-09
318.25 K	2.05e-09
323.04 K	2.23e-09
328.13 K	2.47e-09
328.15 K	2.47e-09
333.02 K	2.6e-09
333.05 K	2.65e-09
342.79 K	2.97e-09
348.16 K	3.25e-09

C[S+](C)[O-] [dimethyl sulfoxide]
Settings	self diffusion coefficient [m2/s]
293.09 K	6.55e-10
298.26 K	7.46e-10
298.29 K	7.45e-10
308.1 K	9.1e-10
318.03 K	1.12e-09
328.1 K	1.34e-09
338.12 K	1.59e-09
348.17 K	1.84e-09
363.71 K	2.29e-09

CCCCCCCCCCCC [dodecane]
Settings	self diffusion coefficient [m2/s]
264.14 K	3.95e-10
266.5 K	4.2e-10
268.03 K	4.37e-10
278.2 K	5.59e-10
278.52 K	5.63e-10
278.56 K	5.64e-10
278.72 K	5.66e-10
288.09 K	6.97e-10
288.49 K	7.03e-10
288.52 K	7.03e-10
298.15 K	8.56e-10
298.2 K	8.57e-10
298.21 K	8.57e-10
308.15 K	1.03e-09
308.16 K	1.04e-09
318.15 K	1.22e-09
318.16 K	1.23e-09
323.17 K	1.33e-09
328.17 K	1.43e-09
328.22 K	1.44e-09
328.25 K	1.47e-09
333.14 K	1.54e-09
337.93 K	1.67e-09
337.97 K	1.66e-09
337.99 K	1.67e-09
348.08 K	1.92e-09
352.75 K	2.07e-09
352.77 K	2.04e-09
364.53 K	2.44e-09
364.54 K	2.41e-09

CCCCCO [pentan-1-ol]
Settings	self diffusion coefficient
253.13 K	5.27e-11 m2/s
253.19 K	5.32e-11 m2/s
258.42 K	6.61e-11 m2/s
258.47 K	6.61e-11 m2/s
263.25 K	8.06e-11 m2/s
263.28 K	8.11e-11 m2/s
268.65 K	1.01e-10 m2/s
268.66 K	1.02e-10 m2/s
278.4 K	1.51e-10 m2/s
278.43 K	1.52e-10 m2/s
288.31 K	2.17e-10 m2/s
288.33 K	2.17e-10 m2/s
298.16 K	3.01e-10 m2/s
298.17 K	3e-10 m2/s
298.19 K	2.99e-10 m2/s
298.21 K	3.02e-10 m2/s
298.27 K	3.02e-10 m2/s
308.09 K	4.13e-10 m2/s
308.11 K	4.14e-10 m2/s
318.08 K	5.54e-10 m2/s
318.09 K	5.56e-10 m2/s
323.1 K	6.39e-10 m2/s
323.15 K	6.43e-10 m2/s
327.86 K	7.3e-10 m2/s and 7.36e-10 m2/s
337.71 K	9.56e-10 m2/s
337.74 K	9.49e-10 m2/s
347.21 K	1.22e-09 m2/s
347.25 K	1.22e-09 m2/s
352.35 K	1.4e-09 m2/s
352.36 K	1.4e-09 m2/s
352.55 K	1.41e-09 m2/s
364.52 K	1.84e-09 m2/s
364.59 K	1.83e-09 m2/s
364.73 K	1.83e-09 m2/s

Cc1ccccc1 [toluene]
Settings	self diffusion coefficient
239.09 K	7.12e-10 m2/s
240.94 K	7.53e-10 m2/s
248.57 K	8.98e-10 m2/s
251.71 K	9.77e-10 m2/s
253.27 K	1.01e-09 m2/s
253.28 K	1.01e-09 m2/s
258.16 K	1.13e-09 m2/s
258.23 K	1.13e-09 m2/s
263.51 K	1.24e-09 m2/s
268.32 K	1.38e-09 m2/s
273.43 K	1.5e-09 m2/s
273.54 K	1.52e-09 m2/s
278.07 K	1.67e-09 m2/s
278.15 K	1.67e-09 m2/s
288.05 K	1.98e-09 m2/s
293.08 K	2.13e-09 m2/s
298 K	2.3e-09 m2/s
298.18 K	2.27e-09 m2/s
298.2 K	2.32e-09 m2/s
298.21 K	2.28e-09 m2/s and 2.3e-09 m2/s
308.07 K	2.71e-09 m2/s
322.69 K	3.15e-09 m2/s
323.16 K	3.32e-09 m2/s
323.18 K	3.3e-09 m2/s
332.93 K	3.56e-09 m2/s
333.16 K	3.56e-09 m2/s
343.45 K	4.09e-09 m2/s
